# Assay results published in patent US3937612A, “Dialkylphosphonoacetylurea compounds and processes for preparation and use for flameproofing” (priority 1974, dated 1976).
# Assay: Water solubility (stated in words)
# Format: physicochemical
# Protocol: While stirring, 682 gm (5 mol) of chloroacetylurea were added portionwise to 831 gm (5 mol) of triethyl phosphite at a temperature of 135°C to 150°C. Each time, the addition of the next portion was delayed until the violent gas evolution had abated. After the last portion of chloracetylurea had been added, the stirring was continued at 150°Cuntil the evolution of gas was terminated. Small quantities of a volatile substance distilled off when the reaction mixture was heated on the water bath under the vacuum generated by an oil pump. The reaction mixture solidified upon cooling. […] The yield of crude product was 1120 gm (94% of the theory).
compound,measurement,value
"CCOP(=O)(CC(=O)NC(N)=O)OCC [diethylphosphonoacetylurea, Diethylphosphonoacetylurea]",water solubility,water-soluble
